Data taken from US9156796B2, “Benzoimidazole-carboxylic acid amide derivatives as APJ receptor modulators” (SANOFI, priority 2013, dated 2015).

Target: T1, human apelin receptor (Homo sapiens, UniProt P35414)
T1 construct: expressed in transfected cells
T1 sequence (P35414 1-380): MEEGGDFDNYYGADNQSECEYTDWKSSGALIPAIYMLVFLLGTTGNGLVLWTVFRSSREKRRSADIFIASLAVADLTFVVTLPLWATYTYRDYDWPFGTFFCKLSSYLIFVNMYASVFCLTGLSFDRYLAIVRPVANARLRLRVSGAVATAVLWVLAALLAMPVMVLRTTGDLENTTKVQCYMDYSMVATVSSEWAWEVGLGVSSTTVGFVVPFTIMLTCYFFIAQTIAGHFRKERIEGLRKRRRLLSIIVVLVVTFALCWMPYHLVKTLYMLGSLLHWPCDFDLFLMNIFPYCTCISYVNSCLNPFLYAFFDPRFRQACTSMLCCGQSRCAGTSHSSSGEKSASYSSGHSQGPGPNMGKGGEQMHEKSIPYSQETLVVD
Assay: Determination of agonism on the human apelin receptor by a calcium fluorescence assay (FLIPR)
Format: cell-based
Conditions: HEK293 cells stably transfected with human apelin receptor and Giaq protein, Fluo-4 calcium fluorescence, read-out: EC50 (APJ agonism)
Summary of the method: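 Agonist EC50s come from peak intracellular calcium transients recorded by FLIPR Tetra, scaled to the 1 μM apelin-13 maximum per plate. Test system: HEK293 stably transfected with human apelin receptor plus Giaq, Fluo-4-loaded (4 μM, 1 h, 37 °C, pH 7.4 buffer with probenecid); ≥7 concentrations, triplicates.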

In order of falling EC50:
1. CCC(C)Cn1c(Cc2cccs2)nc2cc(C(=O)N[C@@H](CC3CCCCC3)C(=O)O)ccc21 (stereo partly drawn) [Example 145, (S)-3-Cyclohexyl-2-{[1-(2-methyl-butyl)-2-thiophen-2-ylmethyl-1H-benzoimidazole-5-carbonyl]-amino}-propionic acid]  18000 nM
2. CCC(CC)n1c(Cc2cccs2)nc2cc(C(=O)N[C@@H](CC(C)C)C(=O)N3CCN(Cc4ccccc4)CC3)ccc21 [Example 271, 1-(1-Ethyl-propyl)-2-thiophen-2-ylmethyl-1H-benzoimidazole-5-carboxylic acid [(S)-1-(4-benzyl-piperazine-1-carbonyl)-3-methyl-butyl]-amide]  3260 nM
3. CCC(CC)n1c(CC2CCCO2)nc2cc(C(=O)N[C@@H](CC3CCCCC3)C(=O)O)ccc21 (stereo partly drawn) [Example 151, (S)-3-Cyclohexyl-2-{[1-(1-ethyl-propyl)-2-(tetrahydro-furan-2-ylmethyl)-1H-benzoimidazole-5-carbonyl]-amino}-propionic acid]  890 nM
4. CCC(CC)n1c(Cc2cccs2)nc2cc(C(=O)N[C@H](CC(=N)NO)CC(C)C)ccc21 [Example 473, 1-(1-Ethyl-propyl)-2-thiophen-2-ylmethyl-1H-benzoimidazole-5-carboxylic acid [(S)-1-(N-hydroxycarbamimidoylmethyl)-3-methyl-butyl]-amide]  173 nM
5. CCC(CC)n1c(Cc2cccs2)nc2cc(C(=O)NC(CC3CCCC3)C(=O)O)ccc21 (centres unmarked) [Example 11, 3-Cyclopentyl-2-{[1-(1-ethyl-propyl)-2-thiophen-2-ylmethyl-1H-benzoimidazole-5-carbonyl]-amino}-propionic acid]  65 nM
